Results reported in patent publication US4259235A, “Tricyclic nitrogenous compounds having string plant growth regulating properties” (BASF Aktiengesellschaft, priority 1977, dated 1981).
Where two headings read alike, the source gives them in different places.

Experiments:
[1] = test system: Cynodon dactylon; assay: Shoot growth, postemergence treatment in the greenhouse (table 26); type: in vivo; details: from seed
Method: (§1) Plastic flowerpots having a volume of 300 cm^3 were filled with a sandy loam and the test plants placed therein (either as seed, as vegetatively reproduced species, or as potted plants, e.g., vines). For preemergence treatment, the active ingredients were suspended or emulsified in water as vehicle and sprayed onto the surface of the soil immediately after sowing by means of finely distributing nozzles. The potted vines were treated by spraying them with the correspondingly diluted liquor. For postemergence treatment, the agents were, as stated above, sprayed in water onto the leaves of the test plants, some liquor also falling onto the soil. In some special cases, solid active ingredients were first dissolved in dimethylformamide and then applied in a total liquor amount of 400 liters of water per hectare. For the postemergence treatment, the plants were first grown to a height of from 3 to 10 cm before being treated. With grasses, the first growth was cut, and the new growth treated 2 to 3 days after cutting. The temperature requirements of the plants were taken into account by placing them in cooler or warmer sections of the greenhouse. The experiments were run for from 4 to 6 weeks, during which time the plants were tended and their reaction to the various treatments was assessed.
(§2) The application rates are given in kg/ha of active ingredient, regardless of the method of application and the amount of water used.
(§3) A 0 to 100 scale was used for the evaluation, 0 denoting normal emergence or no damage (or no inhibition), and 100 denoting non-emergence or complete destruction of the plants. A distinction should be made in the influence on growth between desired changes without any appreciable disadvantageous phytotoxic effects (e.g., purely growth-regulating effects) and those of a phytotoxic herbicical character.

[2] = test system: Poa pratensis; assay: as above; type: in vivo
Method: as §1, §2, §3

[3] = test system: Hordeum vulgare; assay: as above; type: in vivo
Method: as §1, §2, §3

[4] = test system: Tritic. aestiv.; assay: Shoot inhibition, pre- and postemergence treatment (table 28); type: in vivo; details: post-emergence, read-out: % shoot inhibition
Method: as §1, §2, §3

[5] = test system: Poa prat.; assay: as above; type: in vivo; details: Poa pratensis, post-emergence, read-out: % shoot inhibition
Method: as §1, §2, §3

[6] = test system: Glycine max; assay: as above; type: in vivo; details: post-emergence, read-out: % shoot inhibition
Method: as §1, §2, §3

[7] = test system: Hordeum vulg.; assay: as above; type: in vivo, Hordeum vulgare; details: post-emergence, read-out: % shoot inhibition
Method: as §1, §2, §3

[8] = test system: Cynodon dactyl.; assay: as above; type: in vivo, Cynodon dactylon; details: post-emergence, from seed, read-out: % shoot inhibition
Method: as §1, §2, §3

[9] = test system: Arachys hypog.; assay: as above; type: in vivo, Arachys hypogaea; details: post-emergence, read-out: % shoot inhibition
Method: as §1, §2, §3

[10] = test system: Euphorbia genic.; assay: as above; type: in vivo, Euphorbia geniculata; details: post-emergence, read-out: % shoot inhibition
Method: as §1, §2, §3

[11] = test system: Sinapis alba; assay: Herbicidal action, pre- and postemergence application in the greenhouse; type: in vivo; details: post-emergence, read-out: % damage
Method: as §1, §2, §3

[12] = test system: Lolium mult.; assay: as above; type: in vivo; details: for pest or weed control at 3000 g/ha: Lolium, post-emergence, read-out: % damage
Method: as §1, §2, §3

[13] = test system: Mentha piper.; assay: as above; type: in vivo; details: post-emergence; 3.0 kg/ha POST; read-out: % damage
Method: as §1, §2, §3

[14] = test system: Galium apar.; assay: as above; type: in vivo, Galium aparine; details: post-emergence, 3.0 kg/ha POST, read-out: % damage
Method: as §1, §2, §3

[15] = test system: Ipom. spp.; assay: as above; type: in vivo, Ipomoea spp.; details: Ipomoea, post-emergence; 3.0 kg/ha POST; read-out: % damage
Method: as §1, §2, §3

[16] = test system: Cynodon dact. (seed); assay: as above; type: in vivo, Cynodon dactylon
Method: as §1, §2, §3

[17] = test system: Euph. gen.; assay: as above; type: in vivo, Euphorbia geniculata
Method: as §1, §2, §3

`OC1C2CC(C3N=NC23)C1Nc1ccc(Cl)cc1` (stereo not drawn) showed a Shoot length ([1]; 1.0 kg/ha) of 6 cm, a Shoot length ([1]; 2.0 kg/ha) of 6 cm and a Shoot length ([2]; 1.0 kg/ha) of 13 cm. The Shoot length ([2]; 2.0 kg/ha) was 13 cm, the Shoot length ([3]; 0.5 kg/ha) was 16 cm and the Shoot length ([3]; 1.0 kg/ha) was 15 cm. For the same compound, the Shoot length ([3]; 2.0 kg/ha) was 14 cm.

With `c1ccc(C2=NNC3C4CC(C5N=NC45)C23)cc1` (stereo not drawn) [drawing 438] the inhibition at 1000 g/ha ([4]; 1.0 kg/ha POST) was 10%, the inhibition at 1000 g/ha ([4]; 1.0 kg/ha PRE) was 30% and the inhibition at 2000 g/ha ([4]; 2.0 kg/ha POST) was 20%. The inhibition at 2000 g/ha ([4]; 2.0 kg/ha PRE) was 30%, the inhibition at 1000 g/ha ([5]; 1.0 kg/ha PRE) was 60% and the inhibition at 2000 g/ha ([5]; 2.0 kg/ha PRE) was 60%. It also gave an inhibition at 1000 g/ha ([6]; 1.0 kg/ha PRE) of 10%, an inhibition at 2000 g/ha ([6]; 2.0 kg/ha PRE) of 25% and an inhibition at 1000 g/ha ([7]; 1.0 kg/ha POST) of 30%. It also gave an inhibition at 1000 g/ha ([7]; 1.0 kg/ha PRE) of 25%, an inhibition at 2000 g/ha ([7]; 2.0 kg/ha POST) of 30% and an inhibition at 2000 g/ha ([7]; 2.0 kg/ha PRE) of 25%. For the same compound, the inhibition at 1000 g/ha ([8]; 1.0 kg/ha POST) was 13%, the inhibition at 1000 g/ha ([8]; 1.0 kg/ha PRE) was 10% and the inhibition at 2000 g/ha ([8]; 2.0 kg/ha POST) was 25%. It also gave an inhibition at 2000 g/ha ([8]; 2.0 kg/ha PRE) of 10%, an inhibition at 1000 g/ha ([9]; 1.0 kg/ha POST) of 20% and an inhibition at 1000 g/ha ([9]; 1.0 kg/ha PRE) of 10%. It also gave an inhibition at 2000 g/ha ([9]; 2.0 kg/ha POST) of 30%, an inhibition at 2000 g/ha ([9]; 2.0 kg/ha PRE) of 10% and an inhibition at 1000 g/ha ([10]; 1.0 kg/ha PRE) of 10%. The inhibition at 2000 g/ha ([10]; 2.0 kg/ha PRE) was 30%.

`c1ccc(C2=NOC3C4CC(C5N=NC45)C23)cc1` (stereo not drawn) [drawing 453] showed a pest or weed control at 3000 g/ha ([11]; 3.0 kg/ha PRE) of 90%, a pest or weed control at 3000 g/ha ([12]; 3.0 kg/ha POST) of 100% and a pest or weed control at 3000 g/ha ([12]; 3.0 kg/ha PRE) of 100%. The pest or weed control at 3000 g/ha [13] was 75%, the pest or weed control at 3000 g/ha [14] was 95% and the pest or weed control at 3000 g/ha [15] was 100%. For the same compound, the “% damage” value ([16]; appln. rate 2 kg/ha, POST line) was 100%.

For `ClC1C(Cl)C2CC1C1N=NC21` (stereo not drawn), the “% damage” value ([12]; 3.0 kg/ha POST) was 100%, the pest or weed control at 3000 g/ha [12] was 100% and the “% damage” value ([17]; 1.0 kg/ha PRE) was 70%. For the same compound, the “% damage” value ([17]; 2.0 kg/ha POST) was 95%, the “% damage” value ([16]; 1.0 kg/ha PRE) was 90% and the “% damage” value ([16]; 2.0 kg/ha POST) was 100%.

Compound `BrC1C(Br)C2CC1C1N=NC21` (stereo not drawn) [drawing 442] has a pest or weed control at 3000 g/ha ([11]; 3.0 kg/ha POST) of 100%, a pest or weed control at 3000 g/ha ([11]; 3.0 kg/ha PRE) of 70% and a pest or weed control at 3000 g/ha ([12]; 3.0 kg/ha POST) of 100%. For the same compound, the pest or weed control at 3000 g/ha ([12]; 3.0 kg/ha PRE) was 40%, the “% damage” value ([17]; 1.0 kg/ha PRE) was 90% and the “% damage” value ([16]; 1.0 kg/ha PRE) was 100%.
